{
  "source": "patent US11253517B2",
  "about": "“Small molecule regulators of steroid receptor coactivators and methods of use thereof” (BAYLOR COLLEGE OF MEDICINE, priority 2016, dated 2022)",
  "key": {"[1]": {"molecular_target": "T1, LCK (Homo sapiens, UniProt P06239)", "T1 construct": "purchased Promega", "assay": "Kinase-Glo Luminescent Kinase Assay", "type": "biochemical", "protocol": "(§1) SI-12 was also tested for its ability to disrupt kinase activity. The effects of the compound were tested on a panel of 24 kinases using a Kinase-Glo Luminescent Kinase Assay system (Promega; Madison, Wis.). SI-12 was tested, at concentrations of 1000 nM, 50 nM, and 5 nM, for its ability to interfere with recombinant kinases in the assay system. The amount of ATP to ADP conversion in the presence of SI-12 was compared to a DMSO vehicle control. The values shown in Table 3 represent the percentage of kinase activity compared to a DMSO vehicle control.\n(§2) In Table 3, “−” represents less than 20% inhibition; “+” represents from 20% to 40% inhibition; “++” represents from 40% to 60% inhibition; and “+++” represents greater than 60% inhibition."}, "[2]": {"molecular_target": "T2, AKT1 (Homo sapiens, UniProt P31749)", "T2 construct": "purchased Promega", "assay": "Kinase-Glo Luminescent Kinase Assay", "type": "biochemical", "protocol": "as §1, §2"}, "[3]": {"molecular_target": "T3, ROCK1 (Homo sapiens, UniProt Q13464)", "T3 construct": "purchased Promega", "assay": "Kinase-Glo Luminescent Kinase Assay", "type": "biochemical", "protocol": "as §1, §2"}, "[4]": {"molecular_target": "T4, CK2a 1 (Homo sapiens, UniProt P68400)", "T4 construct": "purchased Promega", "assay": "Kinase-Glo Luminescent Kinase Assay", "type": "biochemical", "protocol": "as §1, §2"}, "[5]": {"molecular_target": "T5, CHK1 (Homo sapiens, UniProt O14757)", "T5 construct": "purchased Promega", "T5 sequence (O14757 1-476)": "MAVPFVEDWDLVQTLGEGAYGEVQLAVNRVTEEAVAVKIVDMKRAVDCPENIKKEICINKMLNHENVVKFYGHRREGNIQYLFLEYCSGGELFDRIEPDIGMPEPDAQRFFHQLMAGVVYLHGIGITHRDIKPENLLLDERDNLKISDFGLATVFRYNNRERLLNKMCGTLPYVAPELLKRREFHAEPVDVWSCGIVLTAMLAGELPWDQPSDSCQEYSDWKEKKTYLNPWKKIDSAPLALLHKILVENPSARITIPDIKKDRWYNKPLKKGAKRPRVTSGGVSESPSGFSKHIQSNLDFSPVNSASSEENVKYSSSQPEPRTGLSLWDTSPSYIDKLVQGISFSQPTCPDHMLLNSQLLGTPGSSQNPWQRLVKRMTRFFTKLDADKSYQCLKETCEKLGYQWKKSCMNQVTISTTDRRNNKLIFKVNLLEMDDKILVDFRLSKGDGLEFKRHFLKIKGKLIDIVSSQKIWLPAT", "assay": "Kinase-Glo Luminescent Kinase Assay", "type": "biochemical", "protocol": "as §1, §2"}, "[6]": {"molecular_target": "T6, CAMK4 (Homo sapiens, UniProt Q16566)", "T6 construct": "purchased Promega", "assay": "Kinase-Glo Luminescent Kinase Assay", "type": "biochemical", "protocol": "as §1, §2"}, "[7]": {"molecular_target": "T7, P38A (Homo sapiens, UniProt Q16539)", "T7 construct": "purchased Promega", "T7 sequence (Q16539 2-360 limits assumed)": "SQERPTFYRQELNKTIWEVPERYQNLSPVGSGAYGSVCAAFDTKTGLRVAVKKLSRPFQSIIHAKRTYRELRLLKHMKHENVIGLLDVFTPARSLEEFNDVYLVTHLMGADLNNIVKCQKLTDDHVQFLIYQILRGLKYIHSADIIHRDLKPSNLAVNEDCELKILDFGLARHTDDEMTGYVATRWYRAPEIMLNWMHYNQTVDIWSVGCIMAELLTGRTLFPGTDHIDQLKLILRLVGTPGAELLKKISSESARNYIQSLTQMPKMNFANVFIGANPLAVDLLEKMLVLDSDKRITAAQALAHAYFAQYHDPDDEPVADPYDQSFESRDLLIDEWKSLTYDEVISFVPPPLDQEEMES", "assay": "Kinase-Glo Luminescent Kinase Assay", "type": "biochemical", "protocol": "as §1, §2"}, "[8]": {"molecular_target": "T8, CK1y1 (Homo sapiens, UniProt Q9HCP0)", "T8 construct": "purchased Promega", "T8 sequence (Q9HCP0 whole entry)": "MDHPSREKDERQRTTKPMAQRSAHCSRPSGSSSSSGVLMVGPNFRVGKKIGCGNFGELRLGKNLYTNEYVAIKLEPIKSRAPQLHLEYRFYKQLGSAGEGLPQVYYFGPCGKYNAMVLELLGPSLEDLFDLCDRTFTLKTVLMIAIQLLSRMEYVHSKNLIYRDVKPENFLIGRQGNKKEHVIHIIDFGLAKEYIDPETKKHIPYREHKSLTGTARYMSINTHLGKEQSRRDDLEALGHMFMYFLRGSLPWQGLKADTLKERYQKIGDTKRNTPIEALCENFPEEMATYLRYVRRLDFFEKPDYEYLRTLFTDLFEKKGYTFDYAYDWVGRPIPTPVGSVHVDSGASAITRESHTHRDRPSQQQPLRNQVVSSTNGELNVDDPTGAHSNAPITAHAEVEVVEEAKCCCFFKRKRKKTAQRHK", "assay": "Kinase-Glo Luminescent Kinase Assay", "type": "biochemical", "protocol": "as §1, §2"}, "[9]": {"molecular_target": "T9, AMPK A1 /B1/G2 (Homo sapiens, UniProt Q13131)", "T9 construct": "purchased Promega", "T9 sequence (Q13131 whole entry)": "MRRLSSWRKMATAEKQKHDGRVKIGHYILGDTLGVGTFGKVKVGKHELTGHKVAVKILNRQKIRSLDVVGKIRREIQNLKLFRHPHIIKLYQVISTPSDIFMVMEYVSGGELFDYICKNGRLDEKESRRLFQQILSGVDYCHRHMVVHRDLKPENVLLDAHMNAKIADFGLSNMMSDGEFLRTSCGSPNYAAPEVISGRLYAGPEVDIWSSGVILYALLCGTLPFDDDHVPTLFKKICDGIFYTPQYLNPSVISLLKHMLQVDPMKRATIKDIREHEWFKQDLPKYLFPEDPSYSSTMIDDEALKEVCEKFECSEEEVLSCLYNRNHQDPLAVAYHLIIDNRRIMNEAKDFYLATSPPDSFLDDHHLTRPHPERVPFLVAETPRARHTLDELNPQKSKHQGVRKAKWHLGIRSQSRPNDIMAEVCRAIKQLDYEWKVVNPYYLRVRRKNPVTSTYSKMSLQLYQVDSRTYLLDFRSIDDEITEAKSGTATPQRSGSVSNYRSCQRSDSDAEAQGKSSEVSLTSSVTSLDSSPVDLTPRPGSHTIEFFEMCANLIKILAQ", "T9 sequence (Q9Y478 whole entry partner)": "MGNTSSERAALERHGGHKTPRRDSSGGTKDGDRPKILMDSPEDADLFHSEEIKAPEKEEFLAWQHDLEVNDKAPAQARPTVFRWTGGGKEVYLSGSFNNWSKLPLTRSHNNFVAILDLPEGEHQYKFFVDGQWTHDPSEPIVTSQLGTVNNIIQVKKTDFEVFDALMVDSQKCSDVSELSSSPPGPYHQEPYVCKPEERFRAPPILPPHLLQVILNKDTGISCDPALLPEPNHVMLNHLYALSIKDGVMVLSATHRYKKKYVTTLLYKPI", "T9 sequence (Q9UGJ0 whole entry partner)": "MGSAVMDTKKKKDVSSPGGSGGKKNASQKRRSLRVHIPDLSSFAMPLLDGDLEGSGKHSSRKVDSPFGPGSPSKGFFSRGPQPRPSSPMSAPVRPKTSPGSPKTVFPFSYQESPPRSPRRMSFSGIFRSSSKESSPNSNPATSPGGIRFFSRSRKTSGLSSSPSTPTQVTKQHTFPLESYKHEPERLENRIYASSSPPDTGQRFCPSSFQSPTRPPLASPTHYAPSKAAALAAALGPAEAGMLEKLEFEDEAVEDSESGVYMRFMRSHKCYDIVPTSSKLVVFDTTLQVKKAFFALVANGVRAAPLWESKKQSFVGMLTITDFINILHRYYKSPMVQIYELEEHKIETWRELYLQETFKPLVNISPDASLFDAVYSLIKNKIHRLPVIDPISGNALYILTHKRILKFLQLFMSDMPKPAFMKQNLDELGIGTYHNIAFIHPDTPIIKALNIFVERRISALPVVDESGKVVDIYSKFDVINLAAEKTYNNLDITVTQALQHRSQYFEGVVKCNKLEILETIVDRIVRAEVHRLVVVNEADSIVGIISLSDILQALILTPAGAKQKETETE", "assay": "Kinase-Glo Luminescent Kinase Assay", "type": "biochemical", "protocol": "as §1, §2"}, "[10]": {"molecular_target": "T10, DAPK1 (Homo sapiens, UniProt P53355)", "T10 construct": "purchased Promega", "T10 sequence (P53355 whole entry)": "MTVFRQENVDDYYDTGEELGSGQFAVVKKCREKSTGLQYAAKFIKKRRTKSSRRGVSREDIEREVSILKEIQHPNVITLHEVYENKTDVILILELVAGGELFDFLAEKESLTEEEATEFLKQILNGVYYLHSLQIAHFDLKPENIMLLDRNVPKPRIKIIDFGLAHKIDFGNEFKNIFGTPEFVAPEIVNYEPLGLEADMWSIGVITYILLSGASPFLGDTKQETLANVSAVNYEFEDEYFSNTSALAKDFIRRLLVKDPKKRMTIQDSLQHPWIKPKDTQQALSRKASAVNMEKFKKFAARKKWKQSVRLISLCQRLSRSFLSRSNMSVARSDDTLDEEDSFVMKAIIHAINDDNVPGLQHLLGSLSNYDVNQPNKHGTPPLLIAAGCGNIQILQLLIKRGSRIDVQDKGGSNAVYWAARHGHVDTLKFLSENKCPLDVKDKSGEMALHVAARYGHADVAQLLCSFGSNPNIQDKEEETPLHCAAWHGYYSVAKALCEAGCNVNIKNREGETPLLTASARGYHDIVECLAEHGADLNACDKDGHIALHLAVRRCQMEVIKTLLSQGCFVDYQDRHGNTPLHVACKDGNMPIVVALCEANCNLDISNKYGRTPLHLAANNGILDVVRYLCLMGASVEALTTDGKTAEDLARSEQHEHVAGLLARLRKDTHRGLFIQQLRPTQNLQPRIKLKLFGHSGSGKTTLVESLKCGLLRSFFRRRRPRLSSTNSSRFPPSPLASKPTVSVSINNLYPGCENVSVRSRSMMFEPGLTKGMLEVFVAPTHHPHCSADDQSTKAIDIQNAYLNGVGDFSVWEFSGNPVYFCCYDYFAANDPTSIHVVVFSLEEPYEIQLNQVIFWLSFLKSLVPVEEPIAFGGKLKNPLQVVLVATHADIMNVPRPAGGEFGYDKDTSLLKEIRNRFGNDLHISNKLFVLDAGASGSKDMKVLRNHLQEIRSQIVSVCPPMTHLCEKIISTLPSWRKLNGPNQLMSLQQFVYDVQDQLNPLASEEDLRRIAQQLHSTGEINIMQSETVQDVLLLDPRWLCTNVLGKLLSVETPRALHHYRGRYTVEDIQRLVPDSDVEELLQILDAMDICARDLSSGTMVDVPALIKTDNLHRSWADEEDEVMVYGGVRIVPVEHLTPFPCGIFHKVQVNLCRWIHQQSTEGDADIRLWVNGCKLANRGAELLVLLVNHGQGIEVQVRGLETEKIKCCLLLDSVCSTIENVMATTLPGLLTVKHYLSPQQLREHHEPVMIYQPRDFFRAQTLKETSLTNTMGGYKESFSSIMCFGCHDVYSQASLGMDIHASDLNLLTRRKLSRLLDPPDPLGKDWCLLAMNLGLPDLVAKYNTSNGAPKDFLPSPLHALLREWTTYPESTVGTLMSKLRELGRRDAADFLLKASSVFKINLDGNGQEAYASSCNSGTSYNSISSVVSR", "assay": "Kinase-Glo Luminescent Kinase Assay", "type": "biochemical", "protocol": "as §1, §2"}, "[11]": {"molecular_target": "T11, TAK1-TAB1 (Homo sapiens, UniProt O43318)", "T11 construct": "purchased Promega", "T11 sequence (O43318 with tags, fused parts or gaps limits assumed)": "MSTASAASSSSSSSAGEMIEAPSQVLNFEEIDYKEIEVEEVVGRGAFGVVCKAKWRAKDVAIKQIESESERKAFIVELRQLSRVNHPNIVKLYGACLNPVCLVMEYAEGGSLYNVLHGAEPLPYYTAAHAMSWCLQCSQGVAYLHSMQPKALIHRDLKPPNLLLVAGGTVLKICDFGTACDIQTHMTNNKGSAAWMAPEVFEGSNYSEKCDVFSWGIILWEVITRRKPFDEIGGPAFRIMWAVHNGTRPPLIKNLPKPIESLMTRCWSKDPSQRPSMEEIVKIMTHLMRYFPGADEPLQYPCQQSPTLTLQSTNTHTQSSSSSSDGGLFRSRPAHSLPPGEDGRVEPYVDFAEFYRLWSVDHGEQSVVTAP", "assay": "Kinase-Glo Luminescent Kinase Assay", "type": "biochemical", "protocol": "as §1, §2"}, "[12]": {"test_system": "BT-474 cells", "assay": "IC50 in BT-474 cells, 72 hours incubation", "type": "cell-based", "protocol": "(§3) The compounds described herein were synthesized as described in Example 1. The IC50 values were measured in MDA-MB-468, BT-474, and MCF-7 cells by incubating a series of concentrations of the corresponding compounds for 72 hours.\n(§4) In Tables 1 and 2, “−” represents IC50 or EC50 values greater than 10 μM; “+” represents IC50 or EC50 values from greater than 1 μM to 10 μM; “++” represents IC50 or EC50 values from 0.1 μM to 1 μM; and “+++” represents IC50 or EC50 values less than 0.1 μM."}, "[13]": {"test_system": "MCF-7 cells", "assay": "IC50 in MCF-7 cells, 72 hours incubation", "type": "cell-based", "protocol": "as §3, §4"}, "[14]": {"test_system": "MDA-MB-231 tumor cells", "assay": "MDA-MB-231 xenograft model (luciferase imaging)", "type": "in vivo, Nude mice", "details": "4 mg/kg 5 times per week, five-week period", "protocol": "The quantitated luciferase activity is shown in the graph in FIG. 4.\nSI-12 was evaluated in a MDA-MB-231 model where the MDA-MB-231 tumor cells were stably transfected with a luciferase expression vector. Nude mice had 2.5×10^5 tumor cells implanted into cleared mammary fat pads of nude mice. The progression of tumors in control and SI-12 treated animals (4 mg/kg 5 times per week) was followed by luciferase imaging of the mice over a five-week period."}},
  "data": [
    {"smiles": "CC(=NNc1nc2cc(F)c(F)cc2n1C)c1ccc(F)cn1", "note": "[SI-12]", "values": [
      {"measurement": "LCK kinase inhibition", "setting": "[1]; 5 nM", "value": "− (less than 20% inhibition)"},
      {"measurement": "LCK kinase inhibition", "setting": "[1]; 50 nM", "value": "− (less than 20% inhibition)"},
      {"measurement": "LCK kinase inhibition", "setting": "[1]; 1000 nM", "value": "− (less than 20% inhibition)"},
      {"measurement": "AKT1 kinase inhibition", "setting": "[2]; 5 nM", "value": "− (less than 20% inhibition)"},
      {"measurement": "AKT1 kinase inhibition", "setting": "[2]; 50 nM", "value": "− (less than 20% inhibition)"},
      {"measurement": "AKT1 kinase inhibition", "setting": "[2]; 1000 nM", "value": "− (less than 20% inhibition)"},
      {"measurement": "ROCK1 kinase inhibition", "setting": "[3]; 5 nM", "value": "+ (from 20% to 40% inhibition)"},
      {"measurement": "ROCK1 kinase inhibition", "setting": "[3]; 50 nM", "value": "+ (from 20% to 40% inhibition)"},
      {"measurement": "ROCK1 kinase inhibition", "setting": "[3]; 1000 nM", "value": "+ (from 20% to 40% inhibition)"},
      {"measurement": "CK2a 1 kinase inhibition", "setting": "[4]; 5 nM", "value": "− (less than 20% inhibition)"},
      {"measurement": "CK2a 1 kinase inhibition", "setting": "[4]; 50 nM", "value": "− (less than 20% inhibition)"},
      {"measurement": "CK2a 1 kinase inhibition", "setting": "[4]; 1000 nM", "value": "− (less than 20% inhibition)"},
      {"measurement": "CHK1 kinase inhibition", "setting": "[5]; 5 nM", "value": "− (less than 20% inhibition)"},
      {"measurement": "CHK1 kinase inhibition", "setting": "[5]; 50 nM", "value": "− (less than 20% inhibition)"},
      {"measurement": "CHK1 kinase inhibition", "setting": "[5]; 1000 nM", "value": "− (less than 20% inhibition)"},
      {"measurement": "CAMK4 kinase inhibition", "setting": "[6]; 5 nM", "value": "− (less than 20% inhibition)"},
      {"measurement": "CAMK4 kinase inhibition", "setting": "[6]; 50 nM", "value": "− (less than 20% inhibition)"},
      {"measurement": "CAMK4 kinase inhibition", "setting": "[6]; 1000 nM", "value": "− (less than 20% inhibition)"},
      {"measurement": "P38A kinase inhibition", "setting": "[7]; 5 nM", "value": "− (less than 20% inhibition)"},
      {"measurement": "P38A kinase inhibition", "setting": "[7]; 50 nM", "value": "− (less than 20% inhibition)"},
      {"measurement": "P38A kinase inhibition", "setting": "[7]; 1000 nM", "value": "− (less than 20% inhibition)"},
      {"measurement": "CK1y1 kinase inhibition", "setting": "[8]; 5 nM", "value": "− (less than 20% inhibition)"},
      {"measurement": "CK1y1 kinase inhibition", "setting": "[8]; 50 nM", "value": "− (less than 20% inhibition)"},
      {"measurement": "CK1y1 kinase inhibition", "setting": "[8]; 1000 nM", "value": "− (less than 20% inhibition)"},
      {"measurement": "AMPK A1 /B1/G2 kinase inhibition", "setting": "[9]; 5 nM", "value": "− (less than 20% inhibition)"},
      {"measurement": "AMPK A1 /B1/G2 kinase inhibition", "setting": "[9]; 50 nM", "value": "− (less than 20% inhibition)"},
      {"measurement": "AMPK A1 /B1/G2 kinase inhibition", "setting": "[9]; 1000 nM", "value": "− (less than 20% inhibition)"},
      {"measurement": "DAPK1 kinase inhibition", "setting": "[10]; 5 nM", "value": "− (less than 20% inhibition)"},
      {"measurement": "DAPK1 kinase inhibition", "setting": "[10]; 50 nM", "value": "− (less than 20% inhibition)"},
      {"measurement": "DAPK1 kinase inhibition", "setting": "[10]; 1000 nM", "value": "− (less than 20% inhibition)"},
      {"measurement": "TAK1-TAB1 kinase inhibition", "setting": "[11]; 5 nM", "value": "− (less than 20% inhibition)"},
      {"measurement": "TAK1-TAB1 kinase inhibition", "setting": "[11]; 50 nM", "value": "− (less than 20% inhibition)"},
      {"measurement": "TAK1-TAB1 kinase inhibition", "setting": "[11]; 1000 nM", "value": "− (less than 20% inhibition)"},
      {"measurement": "IC50", "setting": "[12]", "value": "< 100", "unit": "nM"},
      {"measurement": "IC50", "setting": "[13]", "value": "< 100", "unit": "nM"},
      {"measurement": "luciferase expression at primary tumor and lung metastasis (whole body imaging)", "setting": "[14]", "value": "reduced luciferase expression at both the sites of the primary tumor and of MDA-MB-231 metastasis to the lung"},
      {"measurement": "tumor growth in MDA-MB-231 xenograft model", "setting": "[14]", "value": "can inhibit tumor growth"}
    ]}
  ]
}
